Laboratory results taken from PubChem BioAssay (NCI).
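Compound exposure: 48 hours, 5 concentrations, 96-well plates. GI50 is the concentration that inhibits growth by half. TGI: concentration producing complete growth inhibition.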

system: PC-3 prostate; assay: NCI anticancer screen, dose series, 48 h

SMILES	GI50	TGI
COc1cc(NC(C)CCCN)c2nccc(C)c2c1OC (stereo not given)	10.5 µM	34 µM
CSC1(CC(=O)N(C)C)C(=O)Nc2ccccc21 (stereo not given)		> 100 µM
N#CC(C(=O)/C(=N/Nc1nc(=S)[nH]n1N)C(C#N)c1ccccc1)c1ccccc1 (stereo not given)		> 100 µM
O/N=C\c1c(O)ccc2ccccc12		> 100 µM
Cc1c(C2Nc3ccccc3C2C)[nH]c2ccccc12 (stereo not given)	10.6 µM	32.3 µM
O=C(CCCN1CC=C(n2c(=O)[nH]c3ccccc32)CC1)c1ccc(F)cc1	29 µM	> 100 µM
CC(=O)Oc1ccccc1C(=O)N=C1[Se]CCCN1C(=O)c1ccccc1OC(C)=O	2.34 µM	7.24 µM
CCN(CC)CC(C)(C)C(=O)/C=C/c1ccc(Cl)c(Cl)c1	1.85 µM	3.51 µM
O=C(O)Cc1c(O)ccc2ccccc12		> 100 µM
CN1CCc2c(Sc3ccc(C(=O)NO)cc3)c3ccccc3n2C1	1.63 µM	4.01 µM
N#CC1Nc2ccccc2[C@@H](O)C1O (stereo not given in full)		> 100 µM

system: ACHN renal; assay: NCI anticancer screen, dose series, 48 h

SMILES	TGI	GI50
COc1ccccc1/C=C/c1cnccn1	> 10 µM	
CC(=O)Oc1ccccc1C(=O)N=C1[Se]CCN1C(=O)c1ccccc1OC(C)=O	2.86 µM	1.4 µM
CC(C)c1ccccc1S(=O)c1ccccc1C(C)(C)O (stereo not given)	> 100 µM	
CC(C)(C)C(=O)/C=C/c1ccc(Oc2ccccc2)cc1	32.7 µM	
CC1=C(C(=O)Nc2c(C)cccc2C)C(c2ccccc2Cl)C(C(=O)Nc2c(C)cccc2C)=C(C)N1	> 100 µM	
Cc1cn2c(/C=C3/C(=O)Nc4ccccc43)c(-c3ccc(Cl)cc3)nc2s1	8.52 µM	2.48 µM
O=C1CSC(Cc2nc3ccccc3[nH]2)=N1	9.79 µM	
COc1ccccc1NC(=O)C1=C(C)NC(C)=C(C(=O)Nc2ccccc2OC)C1c1ccc([N+](=O)[O-])cc1	> 100 µM	
CCOC(=O)[C@H](CCCNC(=O)OC(C)(C)C)NCc1ccc(OC)c(OC)c1	> 100 µM	
O=C(/C=C/c1c(O)ccc2ccccc12)c1ccc2ccccc2c1	> 100 µM	
O=[N+]([O-])c1ccc(-n2nnc(C3=NCCCN3)c2-c2ccc(Cl)cc2)cc1	> 100 µM	
COC(=O)C12C3C4C5(C(=O)OC)C(C1C35C(=O)N(C(C)C)C(C)C)C42C(=O)N(C(C)C)C(C)C (stereo not given)	> 50 µM	
COc1cc(NC(C)CCCN)c2nccc(C)c2c1OC (stereo not given)	50.1 µM	20.7 µM
COC(=O)/C=C/C1C(C(=O)OC)C2(C(=O)OC)CCC1(C(=O)OC)N2 (stereo not given)	> 100 µM	
CSC1(CC(=O)N(C)C)C(=O)Nc2ccccc21 (stereo not given)	> 100 µM	
N#CC(C(=O)/C(=N/Nc1nc(=S)[nH]n1N)C(C#N)c1ccccc1)c1ccccc1 (stereo not given)	> 100 µM	
N#CC(/C(=N/NC(=O)C(=O)NN)C(=O)NC12CC3CC(CC(C3)C1)C2)c1ccccc1 (stereo not given)	> 100 µM	
CC(=O)OCC1OC([S-])C(OC(C)=O)C(OC(C)=O)C1OC(C)=O.CC[PH+](CC)CC.CC[PH+](CC)CC.[Au].[Au] (stereo not given)	2.38 µM	1.01 µM
Cc1cc(C)n(CCNCCn2nc(C)cc2C)n1	> 100 µM	

SMILES	TGI	GI50
COc1cc2c(cc1OCc1ccccc1)CNCC2	> 100 µM	
O=C(CN1CCCCC1)N1CCc2c([nH]c3ccccc23)C1c1cccnc1 (stereo not given)	> 100 µM	
O/N=C\c1c(O)ccc2ccccc12	70.1 µM	
CCCCCCCCCc1cc(=O)c2c(O)cccc2o1	> 100 µM	
O=C(C[n+]1ccccc1)NNC(=O)/C(=C/c1ccc2c(c1)OCO2)NC(=O)c1ccccc1	> 100 µM	
Cc1c(C2Nc3ccccc3C2C)[nH]c2ccccc12 (stereo not given)	23.1 µM	10.1 µM
O=S(O)CCCCSSCc1ccccc1CSSCCCCS(=O)O	74 µM	
Clc1ccc(-c2c(C3=NCCN3)nnn2-c2ccc(Cl)cc2)cc1	> 100 µM	
CC(C)(C)N1CC2(CCCCC2)C1=O	> 100 µM	
O=C(CCC(=O)Nc1cccc(Cl)c1)CC(=O)c1ccc(Cl)cc1	> 100 µM	
O=C(CCCN1CC=C(n2c(=O)[nH]c3ccccc32)CC1)c1ccc(F)cc1	> 100 µM	45.6 µM
CC(=O)Oc1ccccc1C(=O)N=C1[Se]CCCN1C(=O)c1ccccc1OC(C)=O	4.79 µM	2.3 µM
CCN(CC)CC(C)(C)C(=O)/C=C/c1ccc(Cl)c(Cl)c1	3.09 µM	1.61 µM
NC1CCCC[C@H]1N.N[C@@H]1CCCC[C@@H]1N.O=C(P(=O)([O-])[O-])P(=O)([O-])[O-].[Pt+4].[Pt+4]	> 100 µM	82.2 µM
O=C(O)Cc1c(O)ccc2ccccc12	> 100 µM	
CN1CCc2c(Sc3ccc(C(=O)NO)cc3)c3ccccc3n2C1	12.6 µM	3.04 µM
N#CC1Nc2ccccc2[C@@H](O)C1O (stereo not given in full)	> 100 µM	
CCOC(=O)c1[nH]c(COC(C)=O)c(CCCOC(C)=O)c1CCCOC(C)=O	> 100 µM	
COc1ccc(C(=O)C(CO)Oc2ccccc2OC)cc1OC (stereo not given)	> 100 µM	

system: UO-31 renal; assay: NCI anticancer screen, dose series, 48 h

SMILES	TGI	GI50
COc1ccccc1/C=C/c1cnccn1	> 10 µM	
CC(=O)Oc1ccccc1C(=O)N=C1[Se]CCN1C(=O)c1ccccc1OC(C)=O	1.53 µM	0.424 µM
CC(C)(C)C(=O)/C=C/c1ccc(Oc2ccccc2)cc1	54.3 µM	
CC1=C(C(=O)Nc2c(C)cccc2C)C(c2ccccc2Cl)C(C(=O)Nc2c(C)cccc2C)=C(C)N1	> 100 µM	
Cc1cn2c(/C=C3/C(=O)Nc4ccccc43)c(-c3ccc(Cl)cc3)nc2s1	> 50 µM	35.9 µM
O=C1CSC(Cc2nc3ccccc3[nH]2)=N1	35 µM	
CCOC(=O)[C@H](CCCNC(=O)OC(C)(C)C)NCc1ccc(OC)c(OC)c1	> 100 µM	
O=C(/C=C/c1c(O)ccc2ccccc12)c1ccc2ccccc2c1	> 100 µM	
O=[N+]([O-])c1ccc(-n2nnc(C3=NCCCN3)c2-c2ccc(Cl)cc2)cc1	> 100 µM	
COC(=O)C12C3C4C5(C(=O)OC)C(C1C35C(=O)N(C(C)C)C(C)C)C42C(=O)N(C(C)C)C(C)C (stereo not given)	> 50 µM	
N#CC(C#N)=c1[nH]c2cccc3c2-c2c(cccc2c3=C(C#N)C#N)[nH]1	> 100 µM	
C#C[C@]1(O)CC[C@H]2[C@@H]3CC=C4c5sc(Nc6ccccc6)nc5CC[C@]4(C)[C@H]3CC[C@@]21C	2.91 µM	1.43 µM
COc1cc(NC(C)CCCN)c2nccc(C)c2c1OC (stereo not given)	34.4 µM	17.6 µM
COC(=O)/C=C/C1C(C(=O)OC)C2(C(=O)OC)CCC1(C(=O)OC)N2 (stereo not given)	> 100 µM	
CSC1(CC(=O)N(C)C)C(=O)Nc2ccccc21 (stereo not given)	> 100 µM	
N#CC(C(=O)/C(=N/Nc1nc(=S)[nH]n1N)C(C#N)c1ccccc1)c1ccccc1 (stereo not given)	> 100 µM	

SMILES	TGI	GI50
N#CC(/C(=N/NC(=O)C(=O)NN)C(=O)NC12CC3CC(CC(C3)C1)C2)c1ccccc1 (stereo not given)	> 100 µM	
CC(=O)OCC1OC([S-])C(OC(C)=O)C(OC(C)=O)C1OC(C)=O.CC[PH+](CC)CC.CC[PH+](CC)CC.[Au].[Au] (stereo not given)	2.98 µM	1.6 µM
Cc1cc(C)n(CCNCCn2nc(C)cc2C)n1	> 100 µM	
COc1cc2c(cc1OCc1ccccc1)CNCC2	> 100 µM	
O=C(CN1CCCCC1)N1CCc2c([nH]c3ccccc23)C1c1cccnc1 (stereo not given)	> 100 µM	
CCCCCCCCCc1cc(=O)c2c(O)cccc2o1	> 100 µM	
O=C(C[n+]1ccccc1)NNC(=O)/C(=C/c1ccc2c(c1)OCO2)NC(=O)c1ccccc1	> 100 µM	
Cc1c(C2Nc3ccccc3C2C)[nH]c2ccccc12 (stereo not given)	22.1 µM	6.27 µM
O=S(O)CCCCSSCc1ccccc1CSSCCCCS(=O)O	74.4 µM	
Clc1ccc(-c2c(C3=NCCN3)nnn2-c2ccc(Cl)cc2)cc1	64.5 µM	
CC(C)(C)N1CC2(CCCCC2)C1=O	> 100 µM	
O=C(CCC(=O)Nc1cccc(Cl)c1)CC(=O)c1ccc(Cl)cc1	> 100 µM	
O=C(CCCN1CC=C(n2c(=O)[nH]c3ccccc32)CC1)c1ccc(F)cc1	> 100 µM	27.5 µM
CC(=O)Oc1ccccc1C(=O)N=C1[Se]CCCN1C(=O)c1ccccc1OC(C)=O	4.25 µM	1.33 µM
CCN(CC)CC(C)(C)C(=O)/C=C/c1ccc(Cl)c(Cl)c1	2.72 µM	1.32 µM
